Experimental data from PubChem BioAssay (NCI).
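Dose response: 5 concentrations. Exposure: 48 h. Format: 96-well plates. Endpoint: linear interpolation; highest concentration if not reached. Here, GI50 denotes the concentration required for 50% inhibition of growth. At the TGI there is no net growth.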

Tests used:
Test in all cases: NCI tumour cell line growth inhibition, 48 h
786-0 renal = system: 786-0 renal
A549 NSCLC = system: A549 NSCLC
ACHN renal = system: ACHN renal
BT-549 breast = system: BT-549 breast
CAKI-1 renal = system: CAKI-1 renal
CCRF-CEM leukemia = system: CCRF-CEM leukemia
COLO 205 colon = system: COLO 205 colon
DU-145 prostate = system: DU-145 prostate
EKVX NSCLC = system: EKVX NSCLC
HCC-2998 colon = system: HCC-2998 colon
HCT-116 colon = system: HCT-116 colon
HCT-15 colon = system: HCT-15 colon
HOP-62 NSCLC = system: HOP-62 NSCLC
HOP-92 NSCLC = system: HOP-92 NSCLC
HS 578T breast = system: HS 578T breast
HT29 colon = system: HT29 colon
IGROV1 ovarian = system: IGROV1 ovarian
K-562 leukemia = system: K-562 leukemia
KM12 colon = system: KM12 colon
LOX IMVI melanoma = system: LOX IMVI melanoma
MALME-3M melanoma = system: MALME-3M melanoma
MCF7 breast = system: MCF7 breast
MDA-MB-231 breast = system: MDA-MB-231 breast
MDA-MB-435 = system: MDA-MB-435
MOLT-4 leukemia = system: MOLT-4 leukemia
NCI-H226 lung = system: NCI-H226 lung
NCI-H23 lung = system: NCI-H23 lung
NCI-H460 lung = system: NCI-H460 lung
NCI-H522 lung = system: NCI-H522 lung
NCI/ADR-RES ovarian = system: NCI/ADR-RES ovarian
OVCAR-3 ovarian = system: OVCAR-3 ovarian
OVCAR-4 ovarian = system: OVCAR-4 ovarian
OVCAR-5 ovarian = system: OVCAR-5 ovarian
OVCAR-8 ovarian = system: OVCAR-8 ovarian
PC-3 prostate = system: PC-3 prostate
RPMI-8226 leukemia = system: RPMI-8226 leukemia
RXF 393 renal = system: RXF 393 renal
SF-268 CNS = system: SF-268 CNS
SF-295 CNS = system: SF-295 CNS
SF-539 CNS = system: SF-539 CNS
SK-MEL-2 melanoma = system: SK-MEL-2 melanoma
SK-MEL-28 melanoma = system: SK-MEL-28 melanoma
SK-MEL-5 melanoma = system: SK-MEL-5 melanoma
SK-OV-3 ovarian = system: SK-OV-3 ovarian
SN12C renal = system: SN12C renal
SNB-19 CNS = system: SNB-19 CNS
SW-620 colon = system: SW-620 colon
T-47D breast = system: T-47D breast
TK-10 renal = system: TK-10 renal
U251 CNS = system: U251 CNS
UACC-257 melanoma = system: UACC-257 melanoma
UACC-62 melanoma = system: UACC-62 melanoma
UO-31 renal = system: UO-31 renal

## O=C(CN(/C=C/C(=O)C(F)(F)F)c1ccc(Cl)cc1)c1ccc(F)cc1
786-0 renal
  GI50: 18 µM
  TGI: 42.3 µM
A549 NSCLC
  GI50: 18.7 µM
  TGI: 81.1 µM
ACHN renal
  GI50: 4.17 µM
  TGI: 27 µM
BT-549 breast
  GI50: 15.1 µM
  TGI: 35.3 µM
CAKI-1 renal
  GI50: 10.4 µM
  TGI: 32.7 µM
CCRF-CEM leukemia
  GI50: 3.39 µM
  TGI: 19.8 µM
COLO 205 colon
  GI50: 17.2 µM
  TGI: 46.5 µM
DU-145 prostate
  GI50: 16.1 µM
  TGI: 40.8 µM
EKVX NSCLC
  GI50: 19.2 µM
  TGI: 43.6 µM
HCC-2998 colon
  GI50: 12.9 µM
  TGI: 25.7 µM
HCT-116 colon
  GI50: 14.5 µM
  TGI: 52.3 µM
HCT-15 colon
  GI50: 4.21 µM
  TGI: 21.4 µM
HOP-62 NSCLC
  GI50: 30.3 µM
  TGI: > 100 µM
HOP-92 NSCLC
  GI50: 18 µM
  TGI: 36.8 µM
HS 578T breast
  GI50: 4.95 µM
  TGI: 9.71 µM
HT29 colon
  GI50: 17.9 µM
  TGI: > 100 µM
IGROV1 ovarian
  GI50: 12.5 µM
  TGI: 26.2 µM
K-562 leukemia
  GI50: 2.69 µM
  TGI: 22.2 µM
KM12 colon
  GI50: 5.61 µM
  TGI: 22.7 µM
LOX IMVI melanoma
  GI50: 0.736 µM
  TGI: 16.9 µM
MALME-3M melanoma
  GI50: 13.7 µM
  TGI: 28.9 µM
MCF7 breast
  GI50: 14 µM
  TGI: 33.2 µM
MDA-MB-231 breast
  GI50: 14.2 µM
  TGI: 27.3 µM
MDA-MB-435
  GI50: 12.1 µM
  TGI: 32.3 µM
MOLT-4 leukemia
  GI50: 5.59 µM
  TGI: 28.4 µM
NCI-H226 lung
  GI50: 16.2 µM
  TGI: 30.7 µM
NCI-H23 lung
  GI50: 12.9 µM
  TGI: 26.2 µM
NCI-H460 lung
  GI50: 11.9 µM
  TGI: 26.3 µM
NCI-H522 lung
  GI50: 3.6 µM
  TGI: 17.4 µM
NCI/ADR-RES ovarian
  GI50: 14.4 µM
  TGI: 31.7 µM
OVCAR-3 ovarian
  GI50: 13 µM
  TGI: 28.2 µM
OVCAR-4 ovarian
  GI50: 15.5 µM
  TGI: 38 µM
OVCAR-5 ovarian
  GI50: 23.6 µM
  TGI: 53.5 µM
OVCAR-8 ovarian
  GI50: 15.2 µM
  TGI: 38.4 µM
PC-3 prostate
  GI50: 11.8 µM
  TGI: 25.9 µM
RPMI-8226 leukemia
  GI50: 10.1 µM
  TGI: 51.3 µM
RXF 393 renal
  GI50: 42.9 µM
  TGI: > 100 µM
SF-268 CNS
  GI50: 12.3 µM
  TGI: 30 µM
SF-295 CNS
  GI50: 15.2 µM
  TGI: 34.1 µM
SF-539 CNS
  GI50: 18.9 µM
  TGI: 37.6 µM
SK-MEL-2 melanoma
  GI50: 8.75 µM
  TGI: 21.4 µM
SK-MEL-28 melanoma
  GI50: 16.5 µM
  TGI: 36.4 µM
SK-MEL-5 melanoma
  GI50: 14.6 µM
  TGI: 27.8 µM
SK-OV-3 ovarian
  GI50: 31.5 µM
  TGI: 91.1 µM
SN12C renal
  GI50: 16.1 µM
  TGI: 29.6 µM
SNB-19 CNS
  GI50: 16.2 µM
  TGI: 34.2 µM
SW-620 colon
  GI50: 15.1 µM
  TGI: 32.7 µM
T-47D breast
  GI50: 14.9 µM
  TGI: > 100 µM
TK-10 renal
  GI50: 18.9 µM
  TGI: 74 µM
U251 CNS
  GI50: 11 µM
  TGI: 23 µM
UACC-257 melanoma
  GI50: 12.8 µM
  TGI: 29.9 µM
UACC-62 melanoma
  GI50: 3.04 µM
  TGI: 15.2 µM
UO-31 renal
  GI50: 10.9 µM
  TGI: 23.3 µM
